Laboratory results published in the NIST ThermoML archive (doi:10.1021/je049610v).

Legend:
[1] = refractive index (Na D-line) (dimensionless); xn = mol fraction of the nth substance listed; details: 101 kPa, Liquid
[2] = xn = mol fraction of the nth substance listed; details: 101 kPa, Liquid

COc1ccccc1 [anisole] + CN(C)C=O
Details	mass density, 298.15 K [kg/m3]	mass density, 303.15 K [kg/m3]	mass density, 308.15 K [kg/m3]	refractive index, 298.15 K	refractive index, 303.15 K	refractive index, 308.15 K	speed of sound, 298.15 K [m/s]	viscosity, 298.15 K [mPa·s]	viscosity, 303.15 K [mPa·s]	viscosity, 308.15 K [mPa·s]
[1], x1 = 0.1004	–	–	–	1.4407	1.4381	1.4356	–	–	–	–
[1], x1 = 0.196	–	–	–	1.4513	1.4487	1.4462	–	–	–	–
[1], x1 = 0.2939	–	–	–	1.4614	1.4587	1.4558	–	–	–	–
[1], x1 = 0.3966	–	–	–	1.4708	1.4683	1.4656	–	–	–	–
[1], x1 = 0.4975	–	–	–	1.4798	1.4771	1.4744	–	–	–	–
[1], x1 = 0.5983	–	–	–	1.4878	1.4852	1.4825	–	–	–	–
[1], x1 = 0.6953	–	–	–	1.4953	1.4928	1.4902	–	–	–	–
[1], x1 = 0.7984	–	–	–	1.5024	1.5	1.4973	–	–	–	–
[1], x1 = 0.9042	–	–	–	1.5099	1.5071	1.5043	–	–	–	–
[1], x1 = 1	–	–	–	1.5148	1.5124	1.5092	–	–	–	–
[2], x1 = 0.1004	951	946.6	942.3	–	–	–	1456	0.833	0.787	0.739
[2], x1 = 0.196	957	952.7	948.2	–	–	–	1451	0.859	0.81	0.76
[2], x1 = 0.2939	962.9	958.2	953.9	–	–	–	1445	0.886	0.833	0.78
[2], x1 = 0.3966	968.5	964.1	959.7	–	–	–	1438	0.912	0.856	0.799
[2], x1 = 0.4975	973.4	968.8	964.4	–	–	–	1432	0.937	0.878	0.819
[2], x1 = 0.5983	977.6	973.2	968.7	–	–	–	1427	0.957	0.897	0.836
[2], x1 = 0.6953	981.2	976.9	972.4	–	–	–	1422	0.977	0.913	0.851
[2], x1 = 0.7984	984.7	980.3	975.9	–	–	–	1418	0.994	0.928	0.863
[2], x1 = 0.9042	987.7	983.3	978.5	–	–	–	1413	1.006	0.938	0.871
[2], x1 = 1	988.9	984.1	979.4	–	–	–	1410	0.992	0.919	0.853

COc1ccccc1 [anisole] + ClC(Cl)=C(Cl)Cl
x1 = 1
Details	mass density, 298.15 K [kg/m3]	mass density, 303.15 K [kg/m3]	mass density, 308.15 K [kg/m3]	refractive index, 298.15 K	refractive index, 303.15 K	refractive index, 308.15 K	speed of sound, 298.15 K [m/s]	viscosity, 298.15 K [mPa·s]	viscosity, 303.15 K [mPa·s]	viscosity, 308.15 K [mPa·s]
[1]	–	–	–	1.5148	1.5124	1.5092	–	–	–	–
[2]	988.9	984.1	979.4	–	–	–	1410	0.992	0.919	0.853

COc1ccccc1 [anisole] + C1COCCO1
Details	mass density, 298.15 K [kg/m3]	mass density, 303.15 K [kg/m3]	mass density, 308.15 K [kg/m3]	refractive index, 298.15 K	refractive index, 303.15 K	refractive index, 308.15 K	speed of sound, 298.15 K [m/s]	viscosity, 298.15 K [mPa·s]	viscosity, 303.15 K [mPa·s]	viscosity, 308.15 K [mPa·s]
[1], x1 = 0.0982	–	–	–	1.432	1.4295	1.427	–	–	–	–
[1], x1 = 0.199	–	–	–	1.4434	1.4408	1.4383	–	–	–	–
[1], x1 = 0.296	–	–	–	1.4538	1.4514	1.4496	–	–	–	–
[1], x1 = 0.398	–	–	–	1.4647	1.4628	1.4603	–	–	–	–
[1], x1 = 0.5046	–	–	–	1.475	1.472	1.47	–	–	–	–
[1], x1 = 0.6044	–	–	–	1.484	1.4814	1.4789	–	–	–	–
[1], x1 = 0.7057	–	–	–	1.4925	1.4899	1.4872	–	–	–	–
[1], x1 = 0.8028	–	–	–	1.5009	1.4982	1.4956	–	–	–	–
[1], x1 = 0.9005	–	–	–	1.5084	1.5054	1.5025	–	–	–	–
[1], x1 = 1	–	–	–	1.5148	1.5124	1.5092	–	–	–	–
[2], x1 = 0.0982	1023.3	1017.9	1012.9	–	–	–	1355	1.342	1.185	1.028
[2], x1 = 0.199	1018.4	1013.2	1008.2	–	–	–	1364	1.267	1.128	0.99
[2], x1 = 0.296	1014	1008.6	1003.9	–	–	–	1371	1.19	1.074	0.957
[2], x1 = 0.398	1009.7	1004.6	999.8	–	–	–	1378	1.12	1.028	0.936
[2], x1 = 0.5046	1005.5	1000.6	995.7	–	–	–	1385	1.072	0.994	0.917
[2], x1 = 0.6044	1001.8	996.9	992.1	–	–	–	1390	1.048	0.976	0.904
[2], x1 = 0.7057	998.3	993.5	988.6	–	–	–	1396	1.042	0.969	0.897
[2], x1 = 0.8028	995.1	990.5	985.4	–	–	–	1401	1.032	0.957	0.883
[2], x1 = 0.9005	991.9	987.4	982.4	–	–	–	1405	1.011	0.941	0.87
[2], x1 = 1	988.9	984.1	979.4	–	–	–	1410	0.992	0.919	0.853

COc1ccccc1 [anisole] + OCCCl
x1 = 1
Details	mass density, 298.15 K [kg/m3]	mass density, 303.15 K [kg/m3]	mass density, 308.15 K [kg/m3]	refractive index, 298.15 K	refractive index, 303.15 K	refractive index, 308.15 K	speed of sound, 298.15 K [m/s]	viscosity, 298.15 K [mPa·s]	viscosity, 303.15 K [mPa·s]	viscosity, 308.15 K [mPa·s]
[1]	–	–	–	1.5148	1.5124	1.5092	–	–	–	–
[2]	988.9	984.1	979.4	–	–	–	1410	0.992	0.919	0.853
